Usually solubility stands for the concentration that dissolves in the medium under given conditions.

Consider four molecules from patent US11642314B2, “Mixtures of branched chain keto acids (BCKA) and method for the production of such mixtures” (Evonik Operations GmbH, priority 2018, dated 2023).

The nature of this series: Water solubility at 20° C. Format: physicochemical. The settings on record: in water at 20° C.; calcium salts according to b99.
In the case of `CCC(C)C(=O)C(=O)O` (stereo not shown) [Keto isoleucine], the solubility was 24.3 mg/mL. With `CC(C)CC(=O)C(=O)O` [Keto leucine], the solubility lay within 11.9 to 12.5 mg/mL.

Turning to `CC(C)C(=O)C(=O)O` [Keto valine], the solubility fell in the range of 65 to 70 mg/mL. As to `CSCCC(O)C(=O)O` (stereo not drawn) [α-hydroxymethionine], the solubility lay in the range of 52 to 63 mg/mL.
